Our source for the activity coefficient values is the NIST ThermoML archive (doi:10.1021/je9002724).

SMILES strings stand for the structures. ± gives the expanded uncertainty stated by the source.

The series in a line: activity coefficient (dimensionless); of the first substance listed, at infinite dilution; xn = mol fraction of the nth substance listed. As to conditions: Liquid, Chromatography, x1 = 0.

`CC1CCCCC1` [methylcyclohexane] + C[n+]1ccn(CCO)c1.F[B-](F)(F)F: the activity coefficient came to 328 ± 35 (303.15 K); 373 ± 39 (313.15 K); 421 ± 44 (323.15 K); 486 ± 51 (333.15 K); 546 ± 58 (343.15 K); 611 ± 64 (353.15 K). The activity coefficient (363.15 K) was 677 ± 71.

`Cc1ccc(C)cc1` [1,4-dimethylbenzene] + C[n+]1ccn(CCO)c1.F[B-](F)(F)F: the activity coefficient worked out at 35.4 ± 3.7 (303.15 K); 34.7 ± 3.6 (313.15 K); 33.9 ± 3.6 (323.15 K); 33.2 ± 3.5 (333.15 K); 32.5 ± 3.4 (343.15 K); 32 ± 3.4 (353.15 K). For the setting “363.15 K”, the activity coefficient was 31.4 ± 3.3.

As for `C1=CCCCC1` [cyclohexene] + C[n+]1ccn(CCO)c1.F[B-](F)(F)F, the activity coefficient was found to be 123 ± 13 (303.15 K); 118 ± 12 (313.15 K); 114 ± 12 (323.15 K); 110 ± 12 (333.15 K); 106 ± 11 (343.15 K); 103 ± 11 (353.15 K). Besides, the activity coefficient (363.15 K) amounted to 100 ± 11.

As for `CCCCCCCC` [octane] + C[n+]1ccn(CCO)c1.F[B-](F)(F)F, the activity coefficient by setting is: (303.15 K) 498 ± 52; (313.15 K) 532 ± 56; (323.15 K) 574 ± 61; (333.15 K) 615 ± 65; (343.15 K) 659 ± 70; (353.15 K) 709 ± 75. In addition, the activity coefficient (363.15 K) stood at 760 ± 80.

Turning to `CC(C)CC(C)(C)C` [2,2,4-trimethylpentane] + C[n+]1ccn(CCO)c1.F[B-](F)(F)F, the activity coefficient is 412 ± 44 (303.15 K); 523 ± 55 (313.15 K); 731 ± 77 (323.15 K); 962 ± 100 (333.15 K); 1300 ± 140 (343.15 K); 1700 ± 180 (353.15 K). Further, the activity coefficient (363.15 K) came to 2310 ± 240.

On to `Cc1ccccc1` [toluene] + C[n+]1ccn(CCO)c1.F[B-](F)(F)F, for which the activity coefficient reads like this: (303.15 K) 18.3 ± 1.9; (313.15 K) 18 ± 1.9; (323.15 K) 17.7 ± 1.9; (333.15 K) 17.5 ± 1.8; (343.15 K) 17.3 ± 1.8; (353.15 K) 17.2 ± 1.8. Besides, the activity coefficient (363.15 K) turned out to be 16.9 ± 1.8.

With `c1ccccc1` [benzene] + C[n+]1ccn(CCO)c1.F[B-](F)(F)F, the activity coefficient reads like this: (303.15 K) 9.13 ± 0.96; (313.15 K) 9.11 ± 0.96; (323.15 K) 9.1 ± 0.96; (333.15 K) 9.08 ± 0.95; (343.15 K) 9.06 ± 0.95; (353.15 K) 9.05 ± 0.95. Further, the activity coefficient (363.15 K) stood at 9.04 ± 0.95.

Consider `C1CCCCC1` [cyclohexane] + C[n+]1ccn(CCO)c1.F[B-](F)(F)F, for which the activity coefficient runs as follows: (303.15 K) 339 ± 36; (313.15 K) 418 ± 44; (323.15 K) 488 ± 52; (333.15 K) 593 ± 63; (343.15 K) 689 ± 73; (353.15 K) 803 ± 85. The activity coefficient (363.15 K) amounted to 934 ± 99.

With `Cc1ccccc1C` [1,2-dimethylbenzene] + C[n+]1ccn(CCO)c1.F[B-](F)(F)F, the activity coefficient runs as follows: (303.15 K) 28.9 ± 3; (313.15 K) 28.2 ± 3; (323.15 K) 27.7 ± 2.9; (333.15 K) 27 ± 2.8; (343.15 K) 26.5 ± 2.8; (353.15 K) 25.9 ± 2.7. For the setting “363.15 K”, the activity coefficient worked out at 25.4 ± 2.7.

On to `CCCCCCCCC` [nonane] + C[n+]1ccn(CCO)c1.F[B-](F)(F)F, for which the activity coefficient reads like this: (303.15 K) 546 ± 58; (313.15 K) 564 ± 60; (323.15 K) 582 ± 61; (333.15 K) 599 ± 63; (343.15 K) 616 ± 65; (353.15 K) 633 ± 67. Further, the activity coefficient (363.15 K) worked out at 651 ± 69.

For the compound `CCc1ccccc1` [ethylbenzene] + C[n+]1ccn(CCO)c1.F[B-](F)(F)F, the activity coefficient by setting is: (303.15 K) 42.1 ± 4.4; (313.15 K) 40.6 ± 4.3; (323.15 K) 39 ± 4.1; (333.15 K) 37.9 ± 4; (343.15 K) 36.7 ± 3.9; (353.15 K) 35.9 ± 3.8. Besides, the activity coefficient (363.15 K) came out at 35 ± 3.7.

Consider `C=Cc1ccccc1` [styrene] + C[n+]1ccn(CCO)c1.F[B-](F)(F)F, for which the activity coefficient came to 15.3 ± 1.6 (303.15 K); 15.1 ± 1.6 (313.15 K); 14.8 ± 1.6 (323.15 K); 14.6 ± 1.5 (333.15 K); 14.4 ± 1.5 (343.15 K); 14.2 ± 1.5 (353.15 K). Besides, the activity coefficient (363.15 K) was 14 ± 1.5.

With `Cc1cccc(C)c1` [1,3-dimethylbenzene] + C[n+]1ccn(CCO)c1.F[B-](F)(F)F, the activity coefficient (303.15 K) came to 37.2 ± 3.9; the activity coefficient (313.15 K) amounted to 36.3 ± 3.8; the activity coefficient (323.15 K) is 35.5 ± 3.7; the activity coefficient (333.15 K) is 34.7 ± 3.7; the activity coefficient (343.15 K) is 34 ± 3.6; the activity coefficient (353.15 K) came out at 33.2 ± 3.5. Where the note is “363.15 K”, the activity coefficient was 32.5 ± 3.4.

Take `CCCCCCC` [heptane] + C[n+]1ccn(CCO)c1.F[B-](F)(F)F: the activity coefficient amounted to 620 ± 65 (303.15 K); 850 ± 90 (313.15 K); 1200 ± 130 (323.15 K); 1610 ± 170 (333.15 K); 2190 ± 230 (343.15 K); 2980 ± 310 (353.15 K). For the same compound, where the note is “363.15 K”, the activity coefficient stood at 4220 ± 450.
